Results: patent US9216173B2, “2-Pyridyl carboxamide-containing spleen tyrosine kinase (SYK) inhibitors” (Merck Sharp & Dohme Corp., priority 2011, dated 2015)

Target: T1, recombinant human GST-SYK (Homo sapiens, UniProt P43405)
T1 construct: purchased Carna Biosciences 08-176
Experiment: Homogeneous Time-Resolved Fluorescence (HTRF) assay for the recombinant human Syk enzyme
Assay type: biochemical
Details: GST-hSYK 5 pM, ATP 25 μM, 10-dose titration 10 μM to 0.508 nM; read-out: IC50
Method: Homogeneous Time-Resolved Fluorescence (HTRF) Assay for the Recombinant Human Syk Enzyme
A recombinant GST-hSYK fusion protein was used to measure potency of compounds to inhibit human Syk activity. […] Final volume of the reaction was 10 μL. Phosphorylation of the peptide was allowed to proceed for 45 minutes at room temperature. To quench the reaction and detect the phosphorylated product, 2 nM of a Europium-anti-phosphotyrosine antibody (Perkin Elmer #AD0161) and 70 nM SA-APC (Perkin-Elmer #CR130-100) were added together in 15 mM Tris pH 7.5, 40 mM EDTA, 0.01% tween 20. Final volume of the quenching solution was 10 μL. The resulting HTRF signal was measured after 30 minutes on an EnVision (Perkin-Elmer) reader using a time-resolved fluorescence protocol.

IC50	Compound
0.0039 µM	Cc1nc(Nc2cc(N[C@@H]3CCCC[C@@H]3N)cnc2C(N)=O)ccc1-c1ccccc1 [Example 3.2, 5-{[(1R,2S)-2-aminocyclohexyl]amino}-3-[(6-methyl-5-phenylpyridin-2-yl)amino]pyridine-2-carboxamide]

Same assay, conditions: GST-hSYK 5 pM, ATP 25 μM, 10-dose titration 10 μM to 0.508 nM; read-out: rhSYK Activity (IC50 rating)

Compound	IC50
Cc1cc(-n2nccn2)cc(Nc2cc(N[C@@H]3CCCC[C@@H]3N)cnc2C(N)=O)n1 [Example 1.76, 5-{[(1R,2S)-2-aminocyclohexyl]amino}-3-{[6-methyl-4-(2H-1,2,3-triazol-2-yl)pyridin-2-yl]amino}pyridine-2-carboxamide]	< 0.01 µM
NC(=O)c1ncc(N[C@@H]2CCCC[C@@H]2N)cc1Nc1cccc(CN2CCOCC2)n1 [Example 1.60, 5-{[(1R,2S)-2-aminocyclohexyl]amino}-3-{[6-(morpholin-4-ylmethyl)pyridin-2-yl]amino}pyridine-2-carboxamide]	0.1 to 1 µM
Cc1cc(Cl)cc(Nc2cc(N[C@@H]3CCCC[C@@H]3N)cnc2C(N)=O)n1 [Example 1.12, 5-{[(1R,2S)-2-aminocyclohexyl]amino}-3-[(4-chloro-6-methylpyridin-2-yl)amino]pyridine-2-carboxamide]	< 0.01 µM
NC(=O)c1ncc(N[C@@H]2CCCC[C@@H]2N)cc1Nc1ccncn1 [Example 1.123, 5-{[(1R,2S)-2-aminocyclohexyl]amino}-3-(pyrimidin-4-ylamino)pyridine-2-carboxamide]	0.1 to 1 µM
COc1ccc(Nc2cc(N[C@@H]3CCCC[C@@H]3N)cnc2C(N)=O)nc1C [Example 1.111, 5-{[(1R,2S)-2-aminocyclohexyl]amino}-3-[(5-methoxy-6-methylpyridin-2-yl)amino]pyridine-2-carboxamide]	< 0.01 µM
Cc1nc(Nc2cc(N[C@@H]3CCCC[C@@H]3N)cnc2C(N)=O)ccc1-c1ccc(C)c2ncccc12 [Example 3.32, 5-{[(1R,2S)-2-aminocyclohexyl]amino}-3-{[6-methyl-5-(8-methylquinolin-5-yl)pyridin-2-yl]amino}pyridine-2-carboxamide]	< 0.01 µM
Cc1cc(C)nc(Nc2cc(N[C@H]3CS(=O)(=O)C[C@@H]3N)cnc2C(N)=O)c1 (relative stereo) [Example 2.6, rel-5-{[(3R,4R)-4-amino-1,1-dioxidotetrahydrothiophen-3-yl]amino}-3-[(4,6-dimethylpyridin-2-yl)amino]pyridine-2-carboxamide]	0.1 to 1 µM
NC(=O)c1ncc(N[C@@H]2CCCC[C@@H]2N)cc1Nc1cccc(-c2ccncc2)n1 [Example 1.27, 5-{[(1R,2S)-2-aminocyclohexyl]amino}-3-(2,4′-bipyridin-6-ylamino)pyridine-2-carboxamide]	< 0.01 µM
Cc1cc(C)nc(Nc2cc(NC3CC(N)C3)cnc2C(N)=O)c1 (stereo not drawn) [Example 2.15, 5-[(3-aminocyclobutyl)amino]-3-[(4,6-dimethylpyridin-2-yl)amino]pyridine-2-carboxamide]	0.01 to 0.1 µM
Cc1cc(C)nc(Nc2cc(N[C@H]3[C@@H](N)CCCC3(F)F)cnc2C(N)=O)c1 [Example 1.47, 5-{[(1S,6S)-6-amino-2,2-difluorocyclohexyl]amino}-3-[(4,6-dimethylpyridin-2-yl)amino]pyridine-2-carboxamide]	< 0.01 µM
Cc1cc(C)nc(Nc2cc(NCC(N)C3CC3)cnc2C(N)=O)c1 (stereo not drawn) [Example 1.118, 5-[(2-amino-2-cyclopropylethyl)amino]-3-[(4,6-dimethylpyridin-2-yl)amino]pyridine-2-carboxamide]	< 0.01 µM
C[C@H](N)CNc1cnc(C(N)=O)c(Nc2ccn(-c3ccc(F)cc3)n2)c1 [Example 1.93, 5-{[(2S)-2-aminopropyl]amino}-3-{[1-(4-fluorophenyl)-1H-pyrazol-3-yl]amino}pyridine-2-carboxamide]	< 0.01 µM
NC(=O)c1ncc(N[C@@H]2CCCC[C@@H]2N)cc1Nc1ncn(-c2ccccc2)n1 [Example 1.44, 5-{[(1R,2S)-2-aminocyclohexyl]amino}-3-[(1-phenyl-1H-1,2,4-triazol-3-yl)amino]pyridine-2-carboxamide]	0.01 to 0.1 µM
CCC(C)(N)CNc1cnc(C(N)=O)c(Nc2cc(C)cc(C)n2)c1 (stereo not drawn) [Example 1.117, 5-[(2-amino-2-methylbutyl)amino]-3-[(4,6-dimethylpyridin-2-yl)amino]pyridine-2-carboxamide]	< 0.01 µM
Cc1cc(C)nc(Nc2cc(NC[C@H](C)N)cnc2C(N)=O)c1 [Example 1.3, 5-{[(2S)-2-aminopropyl]amino}-3-[(4,6-dimethylpyridin-2-yl)amino]pyridine-2-carboxamide]	< 0.01 µM
Cc1nc(Nc2cc(N[C@@H]3CCCC[C@@H]3N)cnc2C(N)=O)ccc1-c1ccccc1 [Example 3.2, 5-{[(1R,2S)-2-aminocyclohexyl]amino}-3-[(6-methyl-5-phenylpyridin-2-yl)amino]pyridine-2-carboxamide]	< 0.01 µM
NC(=O)c1ncc(N[C@@H]2CCCC[C@@H]2N)cc1Nc1cccc(N2CCOCC2)n1 [Example 1.57, 5-{[(1R,2S)-2-aminocyclohexyl]amino}-3-[(6-morpholin-4-ylpyridin-2-yl)amino]pyridine-2-carboxamide]	< 0.01 µM
NC(=O)c1ncc(N[C@@H]2CCCC[C@@H]2N)cc1Nc1ccn(-c2ccccc2)n1 [Example 1.14, 5-{[(1R,2S)-2-aminocyclohexyl]amino}-3-[(1-phenyl-1H-pyrazol-3-yl)amino]pyridine-2-carboxamide]	< 0.01 µM
Cc1nc(Nc2cc(NC[C@H](C)N)cnc2C(N)=O)ccc1-c1cn(C)cn1 [Example 1.10, 5-{[(2S)-2-aminopropyl]amino}-3-{[6-methyl-5-(1-methyl-1H-imidazol-4-yl)pyridin-2-yl]amino}pyridine-2-carboxamide]	< 0.01 µM

Next, values leading:

IC50	Compound
< 0.01 µM	COC[C@H](N)CNc1cnc(C(N)=O)c(Nc2ccn(-c3ccc(F)cc3)n2)c1 [Example 1.99, 5-{[(2R)-2-amino-3-methoxypropyl]amino}-3-{[1-(4-fluorophenyl)-1H-pyrazol-3-yl]amino}pyridine-2-carboxamide]
< 0.01 µM	NC(=O)c1ncc(N[C@@H]2CCCC[C@@H]2N)cc1Nc1ccnc(C2CC2)n1 [Example 1.129, 5-{[(1R,2S)-2-aminocyclohexyl]amino}-3-[(2-cyclopropylpyrimidin-4-yl)amino]pyridine-2-carboxamide]
< 0.01 µM	NC(=O)c1ncc(N[C@@H]2CCCC[C@@H]2N)cc1Nc1ccn(-c2ccc(F)cc2)n1 [Example 1.65, 5-{[(1R,2S)-2-aminocyclohexyl]amino}-3-{[1-(4-fluorophenyl)-1H-pyrazol-3-yl]amino}pyridine-2-carboxamide]
< 0.01 µM	Cc1cc(Cl)nc(Nc2cc(N[C@@H]3CCCC[C@@H]3N)cnc2C(N)=O)c1 [Example 1.38, 5-{[(1R,2S)-2-aminocyclohexyl]amino}-3-[(6-chloro-4-methylpyridin-2-yl)amino]pyridine-2-carboxamide]
< 0.01 µM	Cc1cc(-c2ccccc2)cc(Nc2cc(N[C@@H]3CCCC[C@@H]3N)cnc2C(N)=O)n1 [Example 4.1, 5-{[(1R,2S)-2-aminocyclohexyl]amino}-3-[(6-methyl-4-phenylpyridin-2-yl)amino]pyridine-2-carboxamide]
< 0.01 µM	NC(=O)c1ncc(N[C@@H]2CS(=O)(=O)CC[C@@H]2N)cc1Nc1ccn(-c2ccc(F)cc2)n1 (relative stereo) [Example 1.90, rel-5-{[(3S,4S)-4-amino-1,1-dioxidotetrahydro-2H-thiopyran-3-yl]amino}-3-{[1-(4 fluorophenyl)-1H-pyrazol-3-yl]amino}pyridine-2-carboxamide]
< 0.01 µM	Cc1nc(Nc2cc(N[C@@H]3CCCC[C@@H]3N)cnc2C(N)=O)ccc1-c1ccc(C(O)C(F)F)cc1 (stereo partly drawn) [Example 3.8, 5-{[(1R,2S)-2-aminocyclohexyl]amino}-3-({5-[4-(2,2-difluoro-1-hydroxyethyl)phenyl]-6-methylpyridin-2-yl}amino)pyridine-2-carboxamide]
< 0.01 µM	Cc1nc(Nc2cc(N[C@@H]3CCCC[C@@H]3N)cnc2C(N)=O)ccc1-n1ccnn1 [Example 1.74, 5-{[(1R,2S)-2-aminocyclohexyl]amino}-3-{[6-methyl-5-(1H-1,2,3-triazol-1-yl)pyridin-2-yl]amino}pyridine-2-carboxamide]
0.01 to 0.1 µM	Cc1cc(C)nc(Nc2cc(NC(C)C(N)=O)cnc2C(N)=O)c1 (stereo not drawn) [Example 1.39, 5-[(2-amino-1-methyl-2-oxoethyl)amino]-3-[(4,6-dimethylpyridin-2-yl)amino]pyridine-2-carboxamide]
< 0.01 µM	Cc1nc(Nc2cc(N[C@@H]3CCCC[C@@H]3N)cnc2C(N)=O)ccc1-c1ccc2cccnc2c1 [Example 3.27, 5-{[(1R,2S)-2-aminocyclohexyl]amino}-3-[(6-methyl-5-quinolin-7-ylpyridin-2-yl)amino]pyridine-2-carboxamide]
< 0.01 µM	Cc1nc(Nc2cc(N[C@@H]3CCCC[C@@H]3N)cnc2C(N)=O)ccc1-c1ccc(N2CCN(C)CC2)cc1 [Example 3.13, 5-{[(1R,2S)-2-aminocyclohexyl]amino}-3-({6-methyl-5-[4-(4-methylpiperazin-1-yl)phenyl]pyridin-2-yl}amino)pyridine-2-carboxamide]
< 0.01 µM	CCc1cccc(Nc2cc(N[C@@H]3CS(=O)(=O)CC[C@@H]3N)cnc2C(N)=O)n1 (relative stereo) [Example 1.91, rel-5-{[(3S,4S)-4-amino-1,1-dioxidotetrahydro-2H-thiopyran-3-yl]amino}-3-[(6-ethylpyridin-2-yl)amino]pyridine-2 carboxamide]
0.1 to 1 µM	Cc1cc(C)nc(Nc2cc(NC3CCNCC3)cnc2C(N)=O)c1 [Example 2.10, 3-[(4,6-dimethylpyridin-2-yl)amino]-5-(piperidin-4-ylamino)pyridine-2-carboxamide]
